US9399790B2, “Stable NAD/NADH derivatives” (Roche Diabetes Care, Inc., priority 2006, dated 2016)

Tests used:
[1] = target: T1, glucose dehydrogenase (GlucDH) (Bacillus subtilis, UniProt P12310); assay: Glucose dehydrogenase (GlucDH) activity assay with NAD derivative as cofactor; assay type: biochemical; details: for U/ml: GlucDH 0.002 mg/ml (NAD)
Description: In order to examine the role of pNAD as a cofactor for glucose dehydrogenase (GlucDH), a glucoseDH activity assay in 0.1 M Tris/0.2 M NaCl (pH 8.5) buffer was carried out. The concentration of glucose was 80 mM. pNAD and NAD concentrations of 0.05-0.5 mM were used. To this, 10 mg/ml (pNAD) or 0.002 mg/ml (NAD) [83 or 0.017 μM respectively] GlucDH was added. The assay was carried out at room temperature and the enzymatic reaction was monitored by recording absorption spectra at regular time intervals. The values shown in table 1 refer to an absorption measurement after 4 min.
A glucose dehydrogenase activity assay for cNAD compared to NAD was carried out as described under B) for pNAD. For this purpose glucose dehydrogenase concentrations of […] and 0.002 mg/ml (NAD) [0.83 and 0.017 μM respectively] were used.

[2] = Examination of the stability of carbaNAD (stressing in solution, HPLC); assay type: physicochemical; details: 10 mM solution, pH 8, 0.1 M potassium phosphate buffer, 8° C. and 37° C., after 0.25, 75 and 175 h
Description: A 10 mM solution of carbNAD and/or NAD is stressed at pH 8 in 0.1 M potassium phosphate buffer. The content is determined by means of HPLC chromatography after 0.25, 75 and 175 h.
Buffer A: 100 mM KHPO4+10 mM tetrabutylammonium hydrogen sulfate, pH 6.9 buffer B: buffer A+acetonitrile 1:1 flow rate 1.0 ml/min detection: 254 nm […]
gradient: in 40 min to 35% buffer B, hold for 2 min and then change to 0% buffer A within 3 min.

[3] = target: T1, glucose dehydrogenase (GlucDH); assay: Glucose dehydrogenase (GlucDH) activity assay with NAD derivative as cofactor; assay type: biochemical; details: 0.05 mM (p)NAD; 80 mM glucose; 0.1 M Tris/0.2 M NaCl pH 8.5; room temperature; absorption after 4 min; GlucDH 0.02 mg/ml (NAD), 10 mg/ml (pNAD)
[4] = Investigation of the stability of pNAD (incubation at 50° C., HPLC); assay type: physicochemical; details: 0.15 M KPO4, 1 M NaCl buffer (pH 7.0)
Description: In order to examine the stability of pNAD compared to NAD, the same amounts of NAD and pNAD were each taken up in 0.15 M KPO4, 1 M NaCl buffer (pH 7.0) and incubated at 50° C. The decomposition of NAD and/or pNAD were monitored by HPLC.

[5] = 0.05 mM (c)NAD, relative to NAD = 100
[6] = 0.05 mM (p)NAD, relative to NAD = 100, 80 mM glucose, pH 8.5, after 4 min
[7] = 0.1 mM (c)NAD, relative to NAD = 100
[8] = 0.4 mM (p)NAD, relative to NAD = 100, 80 mM glucose, pH 8.5, after 4 min

T1 sequence (P12310 whole entry): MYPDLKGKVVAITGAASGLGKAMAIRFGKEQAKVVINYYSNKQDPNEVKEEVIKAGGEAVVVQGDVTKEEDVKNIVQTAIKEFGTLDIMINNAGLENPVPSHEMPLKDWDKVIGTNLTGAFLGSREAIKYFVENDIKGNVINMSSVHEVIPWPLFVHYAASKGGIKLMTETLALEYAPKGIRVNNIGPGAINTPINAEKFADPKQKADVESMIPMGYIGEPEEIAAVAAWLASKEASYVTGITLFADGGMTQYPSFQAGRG

Row | SMILES | activity at 50 µM [1, 5] [%] | activity at 50 µM [1, 6] [%] | activity at 100 µM [1, 7] [%] | activity at 400 µM [1, 8] [%] | U/ml ([1]; 0.05 mM (c)NAD, assay as for pNAD, 0.1 mg/ml (cNAD)) [U/ml] | % activity [1, 5] [%] | U/ml ([1]; 0.1 mM (c)NAD, assay as for pNAD, 0.1 mg/ml (cNAD)) [U/ml] | % activity [1, 7] [%] | stability (occurrence of decomposition products, HPLC area percentages) [2] | U/ml ([1]; 0.4 mM (p)NAD, 80 mM glucose, 0.1 M Tris/0.2 M NaCl pH 8.5, room temperature, absorption after 4 min, 10 mg/ml (pNAD)) [U/ml] | U/ml [3] [U/ml] | stability (percentage areas of (p)NAD compared to time zero, HPLC) [4]
1 | NC(=O)c1ccc[n+]([C@@H]2O[C@H](COP(=O)([O-])OP(=O)(O)OC[C@H]3O[C@@H](n4cnc5c(N)ncnc54)[C@H](O)[C@@H]3O)[C@@H](O)[C@H]2O)c1 [NAD, nicotinamide adenine dinucleotide, reference compound] | 100 | 100 | 100 | 100 |  |  |  |  |  |  |  | 
2 | NC(=O)c1ccc[n+]([C@@H]2C[C@H](COP(=O)([O-])OP(=O)(O)OC[C@H]3O[C@@H](n4cnc5c(N)ncnc54)[C@H](O)[C@@H]3O)[C@@H](O)[C@H]2O)c1 [cNAD, carbaNAD] |  |  |  |  | 2.7 | 0.63 | 5.3 | 0.95 | very stable compared to NAD |  |  | 
3 | NC(=O)c1ccc[n+]([C@@H]2CN[C@H](COP(=O)([O-])OP(=O)(O)OC[C@H]3O[C@@H](n4cnc5c(N)ncnc54)[C@H](O)[C@@H]3O)C2)c1 [pNAD, Pyrrolidinyl-NAD] |  | 3e-05 |  | 0.00015 |  |  |  |  |  | 0.0024 | 0.00017 | very stable compared to NAD
